# Test results as given in patent publication US9913468B2, “Microbicidal composition” (Dow Global Technologies LLC, priority 2013, dated 2018).
# Read-outs that look alike come from different tables or passages of the source.
# Legend:
# Type in all cases: cell-based
# [1] = test system: Staphylococcus aureus ATCC #6538; test: MIC / synergy index test in 96 well microtiter plates, Gram positive bacteria; conditions: S. aureus, 1/10 TSB; for MIC: Staphylococcus aureus, ATCC6538, 24 h, DTEA alone, read-out: MIC alone, CB (compound B)
# Protocol: (§1) Surfactants and biocides were evaluated for synergy by determining the synergy index (S.I.) of the combination. Synergy index was calculated based on minimum inhibitory concentrations (MIC) of two antimicrobial compounds (A and B) alone and in combinations. The tests organisms were Gram negative bacteria (Pseudomonas aeruginosa ATCC #15442), Gram positive bacteria (Staphylococcus aureus ATCC #6538), yeast (Candida albicans ATCC#10203) and mold (Aspergillus niger ATCC#16404). Contact time for the bacteria was 24 and 48 hours, yeast was 48 and 72 hrs, and 3 and 7 days for mold. The test was carried out in 96 well microtiter plates. R^1O(CH2CH(CH3)O)5(CH2CH2O)9H, where R^1 is 2-ethylhexyl Surf. A R^2O(CH2CH(CH3)O)3(CH2CH2O)5H Surf. D R^2O(CH2CH(CH3)O)3(CH2CH2O)7H Surf. E In Surf. D and Surf. E, R^2 is a mixture of C8-C14 linear alkyl groups (70% C8-C10 linear alkyl and 30% C12-C14 linear alkyl) Inoculums Used
# (§2) The pH of the Triptic soy broth was 7.3 and the Potato dextrose broth was 5.1.
# (§3) SI is calculated as follows: Ca/CA+Cb/CB=Synergy Index (“SI”) Wherein: • CA=concentration of compound A in ppm, acting alone, which produced an end point (MIC of Compound A). • Ca=concentration of compound A in ppm, in the mixture, which produced an end point. • CB=concentration of compound B in ppm, acting alone, which produced an end point (MIC of Compound B). • Cb=concentration of compound B in ppm, in the mixture, which produced an end point. When the sum of Ca/CA and Cb/CB is greater than one, antagonism is indicated.
# [2] = test system: Candida albicans ATCC#10203; test: MIC / synergy index test in 96 well microtiter plates, yeast; conditions: C. albicans, PDB; for MIC: Candida albicans, ATCC10203, 48 h, DTEA alone, read-out: MIC alone, CB (compound B)
# Protocol: as §1, §2, §3
# [3] = test system: Aspergillus niger ATCC#16404; test: MIC / synergy index test in 96 well microtiter plates, mold; conditions: 3rd day, PDB; for MIC: Aspergillus niger, ATCC16404, DTEA alone, A. niger, read-out: MIC alone, CB (compound B)
# Protocol: as §1, §2, §3
# [4] = test system: Pseudomonas aeruginosa ATCC #15442; test: MIC / synergy index test in 96 well microtiter plates, Gram negative bacteria; conditions: ATCC15442, 24 h, read-out: MIC alone, CB (compound B)
# Protocol: as §1, with “Used […]” for “Used”
# (§4) SI is calculated as follows: Ca/CA+Cb/CB=Synergy Index (“SI”) Wherein: • CA=concentration of compound A in ppm, acting alone, which produced an end point (MIC of Compound A). • Ca=concentration of compound A in ppm, in the mixture, which produced an end point. • CB=concentration of compound B in ppm, acting alone, which produced an end point (MIC of Compound B). • Cb=concentration of compound B in ppm, in the mixture, which produced an end point. […]
# [5] = test system: any organism tested (Pseudomonas aeruginosa, Staphylococcus aureus, Candida albicans, Aspergillus niger); test: Synergy of other biocides paired with the surfactants, any organism tested; conditions: listed under Surf. D; except for one data point
# Protocol: as §1, §4
# [6] = inoculum 1.156E+06, Surf. A series
molecule,measurement,setting,value
"CCCCCCCCCCSCCN [DTEA, 2-decylthioethylamine]",MIC,[1]; [6],4 mg/L
same,MIC,"[1]; inoculum 1.156E+06, Surf. E series",5 mg/L
same,MIC,"[1]; inoculum 1.8E+05, Surf. D series",5 mg/L
same,MIC,[2]; [6],50 mg/L
same,MIC,"[2]; inoculum 1.8E+06, Surf. E series",50 mg/L
same,MIC,"[2]; inoculum 5.72E+05, Surf. D series",40 mg/L
same,MIC,[3]; [6],200 mg/L
same,MIC,"[3]; inoculum 1.156E+06, Surf. D series",100 mg/L
same,MIC,"[3]; inoculum 1.56E+06, Surf. E series",200 mg/L
same,MIC,[4],20 mg/L
CCCCNC(=O)OCC#CI [IPBC],Ratio of surfactant to biocide where synergy was observed,[5],synergistic only at 1:0.05 or worse
Cn1sc2ccccc2c1=O [MBIT],Ratio of surfactant to biocide where synergy was observed,[5],synergistic only at 1:0.05 or worse
"R^1O(CH2CH(CH3)O)5(CH2CH2O)9H, where R^1 is 2-ethylhexyl [Surf. A]","MIC alone, CA (compound A)","[1]; Surf. A alone, 24 hrs, inoculum 1.156E+06",>20000 ppm
same,"MIC alone, CA (compound A)","[2]; Surf. A alone, 48 hrs, inoculum 1.156E+06",>20000 ppm
same,"MIC alone, CA (compound A)","[3]; Surf. A alone, inoculum 1.156E+06",>20000 ppm
